Literature values in US8633150B2, “Methods for inducing sustained immune response” (TNI Biotech, Inc., priority 2001, dated 2014).
Read-outs that look alike come from different tables or passages of the source.

Columns and labels:
[1] = Bihari
[2] = normal volunteers, HIV positive, and cancer patients; Plotnikoff, et al., 1997

Question: Which results are given for `CSCC[C@H](NC(=O)[C@H](Cc1ccccc1)NC(=O)CNC(=O)CNC(=O)[C@@H](N)Cc1ccc(O)cc1)C(=O)O` [met-enkephalin, methionine enkephalin]?
Answer: half-life in plasma ([1]; et al., 1991): approximately 2 minutes; half-life in plasma ([1]; et al., 1991, listed as Met-enkelphalin): approximately two; toxicity in clinical studies [2]: no major toxicity
